The numbers were not newly measured in patent US20100221334A1, “COMPOSITIONS INCLUDING LEUKOTRIENE ANTAGONISTS AND NSAIDS AND METHODS OF USING THE SAME” (priority 2007, published 2010), which cites them from elsewhere.

For this data set the following is noted: general statement on long-acting NSAIDs; species not given.
In the case of `CCc1cccc2c3c([nH]c12)C(CC)(CC(=O)O)OCC3` (stereo not shown) [etodolac], the pharmacokinetic half-life entry is on record as “about 7 hours”. For `CC(C(=O)O)c1ccc(-c2ccccc2)c(F)c1` (stereo not shown) [flurbiprofen], the pharmacokinetic half-life result is listed as “about 6 hours”. Regarding `O=C(c1ccccc1)c1ccc2n1CCC2C(=O)O` (stereo not shown) [ketorolac], the pharmacokinetic half-life is 8 to 9 h. On to `Cc1cccc(Nc2ccccc2C(=O)O)c1C` [mefenamic acid], for which the pharmacokinetic half-life entry was “up to 4 hours”.
